Results published in US10882856B2 (BeiGene, Ltd., priority 2017, dated 2021).

Legend:
[1] = molecular target: T1, cellular TDO2 in HEK293-TDO2 cells (Homo sapiens, UniProt P48775); test: 293-TDO2 cell-based assay (Kyn colorimetric); conditions: 48 hours of incubation
T1 construct: expressed in transfected cells; host or cells: HEK293 (ATCC), stably transfected
Procedure, shortened: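 Kyn formed from L-Trp was read colorimetrically at 480 nm (TCA deproteinisation, then 2% 4-(dimethylamino)benzaldehyde). Compounds were added to 293-TDO2 cells 4 h post-seeding and left 48 h at 37° C. A four-parameter logistic model gave IC50 values.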

IDO1 [2] = molecular target: T2, IDO1 (Homo sapiens, UniProt P14902); test: IDO1 enzymatic assay; assay type: biochemical; set-up: His tag (N); made in house; host or cells: E. coli; conditions: read-out: Enzyme IC50 IDO1
T2 sequence (P14902 whole entry): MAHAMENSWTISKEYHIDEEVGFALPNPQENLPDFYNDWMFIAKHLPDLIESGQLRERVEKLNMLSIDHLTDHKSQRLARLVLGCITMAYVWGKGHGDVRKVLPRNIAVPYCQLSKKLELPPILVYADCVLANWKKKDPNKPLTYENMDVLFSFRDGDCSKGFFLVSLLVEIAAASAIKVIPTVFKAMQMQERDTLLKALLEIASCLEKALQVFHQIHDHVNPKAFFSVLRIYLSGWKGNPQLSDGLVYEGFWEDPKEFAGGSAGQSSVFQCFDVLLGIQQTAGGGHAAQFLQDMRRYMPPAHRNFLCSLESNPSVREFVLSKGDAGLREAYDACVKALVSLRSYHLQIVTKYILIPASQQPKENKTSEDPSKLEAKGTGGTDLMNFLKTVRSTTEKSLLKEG
Procedure, shortened: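 Recombinant IDO1 carrying an N-terminal His tag and purified from E. coli was used at 50 nM with test compound, 1.3 mM D-tryptophan, 5 mM L-ascorbic acid, methylene blue and 0.4 mg/mL catalase in 50 mM potassium phosphate pH 7.5 containing 0.1% BSA. This mixture was incubated at 24 °C for 1.5 hours, after which N'-formylkynurenine formation was followed continuously at 321 nm for 1 hour and activity was taken as the slope. IC50 was derived from the enzyme activity remaining as compound concentration increased.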

IDO1 [3] = molecular target: T2, IDO1; test: Hela cell-based IDO1 assay; conditions: Hela cells
Procedure, shortened: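 Kynurenine was measured at 480 nm in trichloroacetic acid-deproteinised supernatant after adding 2% 4-(dimethylamino)benzaldehyde. This supernatant came from HeLa cells seeded at 8000 per well in 96-well plates in phenol red-free DMEM with 10% FBS and, from 4 hours after seeding, exposed for 48 hours at 37 °C, 5% CO2 to DMSO-diluted compound dilutions, IFN-γ (final 100 ng/mL) and 0.4 mM L-Trp. The resulting data were fitted with a four-parameter logistic model in XLfit. Potency was taken from those fits.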

T1 sequence (P48775 whole entry): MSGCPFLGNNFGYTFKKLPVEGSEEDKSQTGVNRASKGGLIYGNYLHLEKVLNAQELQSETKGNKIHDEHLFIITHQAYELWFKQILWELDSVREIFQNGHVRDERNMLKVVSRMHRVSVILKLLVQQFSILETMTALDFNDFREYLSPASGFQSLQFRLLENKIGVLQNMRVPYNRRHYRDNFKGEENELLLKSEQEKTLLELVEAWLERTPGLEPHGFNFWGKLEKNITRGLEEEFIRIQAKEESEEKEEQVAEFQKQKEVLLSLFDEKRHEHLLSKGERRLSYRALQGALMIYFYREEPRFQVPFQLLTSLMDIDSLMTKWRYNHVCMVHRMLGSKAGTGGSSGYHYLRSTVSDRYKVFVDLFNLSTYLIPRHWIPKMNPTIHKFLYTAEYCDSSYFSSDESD

COc1ccccc1C1CCC(C(O)c2c(C3CC3)ccn3cncc23)CC1 (stereo not drawn) [Example C113, (7-Cyclopropylimidazo[1,5-a]pyridin-8-yl)(4-(2-methoxyphenyl)cyclohexyl)methan]
EC50 [1]: > 10000 nM
IC50 (IDO1 [2]): 55 nM
EC50 (IDO1 [3]): 149 nM

COc1cccc(C2CCC(C(O)c3c(C4CC4)ccn4cncc34)CC2)c1 (stereo not drawn) [Example C114, (7-cyclopropylimidazo[1,5-a]pyridin-8-yl)(4-(3-methoxyphenyl)cyclohexyl)methanol]
EC50 [1]: > 10000 nM
IC50 (IDO1 [2]): 51 nM
EC50 (IDO1 [3]): 195 nM

OC(c1c(C2CC2)ccn2cncc12)C1CCC(c2ccccc2C(F)(F)F)CC1 (stereo not drawn) [Example C116]
EC50 [1]: > 10000 nM
IC50 (IDO1 [2]): 160 nM
EC50 (IDO1 [3]): 1100 nM

OC(c1c(C2CC2)ccn2cncc12)C1CCC(c2ccc(OC3COC3)cc2)CC1 (stereo not drawn) [Example C117, (7-cyclopropylimidazo[1,5-a]pyridin-8-yl)(4-(4-(oxetan-3-yloxy)phenyl)cyclohexyl)methanol]
EC50 [1]: > 10000 nM
IC50 (IDO1 [2]): 35 nM
EC50 (IDO1 [3]): 184 nM

OC(c1c(C2CC2)ccn2cncc12)C1CCC(c2ccc(OC3CCCC3)cc2)CC1 (stereo not drawn) [Example C118, (4-(4-(cyclopentyloxy)phenyl)cyclohexyl)(7-cyclopropylimidazo[1,5-a]pyridin-8-yl)methanol]
EC50 [1]: > 10000 nM
IC50 (IDO1 [2]): 120 nM
EC50 (IDO1 [3]): 259 nM

OC(c1c(C2CC2)ccn2cncc12)C1CCC(c2ccc(OC3CCOCC3)cc2)CC1 (stereo not drawn) [Example C119, (7-cyclopropylimidazo[1,5-a]pyridin-8-yl)(4-(4-((tetrahydro-2H-pyran-4-yl)oxy)phenyl)cyclohexyl)methanol]
EC50 [1]: > 10000 nM
IC50 (IDO1 [2]): 39 nM
EC50 (IDO1 [3]): 148 nM

OC(c1c(C2CC2)ccn2cncc12)C1CCC(c2ccc(C(F)(F)F)nc2)CC1 (stereo not drawn) [Example C120, (7-cyclopropylimidazo[1,5-a]pyridin-8-yl)(4-(6-(trifluoromethyl)pyridin-3-yl)cyclohexyl)methanol]
EC50 [1]: > 10000 nM
IC50 (IDO1 [2]): 96 nM
EC50 (IDO1 [3]): 2180 nM

OC(c1c(C2CC2)ccn2cncc12)C1CCC(c2cccc3ccccc23)CC1 (stereo not drawn) [Example C121, (7-cyclopropylimidazo[1,5-a]pyridin-8-yl)(4-(naphthalen-1-yl)cyclohexyl)methanol]
EC50 [1]: > 10000 nM
IC50 (IDO1 [2]): 94 nM
EC50 (IDO1 [3]): 125 nM

OC(c1c(C2CC2)ccn2cncc12)C1CCC(c2ccc3ccccc3c2)CC1 (stereo not drawn) [Example C122, (7-cyclopropylimidazo[1,5-a]pyridin-8-yl)(4-(naphthalen-2-yl)cyclohexyl)methanol]
EC50 [1]: > 10000 nM
IC50 (IDO1 [2]): 74 nM
EC50 (IDO1 [3]): 382 nM

OC(c1c(C2CC2)ccn2cncc12)C1CCC(c2ccc3c(c2)OCO3)CC1 (stereo not drawn) [Example C123, (4-(benzo[dl][1,3]dioxol-5-yl)cyclohexyl)(7-cyclopropylimidazo[1,5-a]pyridin-8-yl) methanol]
EC50 [1]: > 10000 nM
IC50 (IDO1 [2]): 15 nM
EC50 (IDO1 [3]): 372 nM

NC(=O)c1ccc([C@H]2CC[C@H]([C@H](O)c3c(C4CC4)ccn4cncc34)CC2)cc1 [Example C124]
EC50 [1]: > 10000 nM
IC50 (IDO1 [2]): 56 nM
EC50 (IDO1 [3]): 236 nM

OC(c1c(C2CC2)ccn2cncc12)C1CCC(c2cccc3ncccc23)CC1 (stereo not drawn) [Example C126, (7-cyclopropylimidazo[1,5-a]pyridin-8-yl)(4-(quinolin-5-yl)cyclohexyl)methanol]
EC50 [1]: > 10000 nM
IC50 (IDO1 [2]): 29 nM
EC50 (IDO1 [3]): 30 nM

OC(c1c(C2CC2)ccn2cncc12)C1CCC(c2ccnc3ccc(F)cc23)CC1 (stereo not drawn) [Example C128, (7-cyclopropylimidazo[1,5-a]pyridin-8-yl)(4-(6-fluoroquinolin-4-yl)cyclohexyl)methanol]
EC50 [1]: > 10000 nM
IC50 (IDO1 [2]): 39 nM
EC50 (IDO1 [3]): 51 nM

OC(c1c(C2CC2)ccn2cncc12)C1CCC(c2ccnc3c(F)cccc23)CC1 (stereo not drawn) [Example C129, (7-cyclopropylimidazo[1,5-a]pyridin-8-yl)(4-(8-fluoroquinolin-4-yl)cyclohexyl)methanol]
EC50 [1]: > 10000 nM
IC50 (IDO1 [2]): 33 nM
EC50 (IDO1 [3]): 51 nM
